According to paper PMC4204849, “Lifespan Based Pharmacokinetic-Pharmacodynamic Model of Tumor Growth Inhibition by Anticancer Therapeutics” (PLoS ONE, 2014):
Converted amounts (≈) assume the structure as drawn. Marks after values point to notes of the source that are not given here.

Key:
[1] = Pharmacokinetic study of AZD1208, single oral administration, one-compartment model; type: in vivo, mice; settings: single oral 3, 10, 30 mg/kg
Method: For pharmacokinetic study of AZ968, CD1 mice were given single i.p. injection of AZ968 at 10, 20 or 30 mg/kg with 3 mice per dose group. Blood samples were collected via cardiac puncture. Total plasma concentrations of AZ968 were determined by LC/MS/MS method. Same procedure was used for the pharmacokinetic study of AZD1208, except AZD1208 was administered orally (p.o.) at 3, 10 or 30 mg/kg doses as outlined in the original study.
(§1) Data for this case study was provided by AstraZeneca. For the purpose of this case study we will set time according to when the first dose of AZD1208 was administered, which we count as day 1. We began with a compartmental PK analysis after a single oral administration of AZD1208 at 3, 10 and 30 mg/kg and found it well described using a one-compartment PK model with first order absorption as shown in Figure 9A.

MOLM-16 tumor cell = test: Tumor growth inhibition by AZD1208 in xenograft, lifespan TGI model (non-cycle-specific, Emax); type: in vivo, mice
Method: as §1
After establishing the PK model, we fit the TGI data using the lifespan TGI model. Since AZD1208 is a pan-Pim kinase inhibitor that promotes apoptosis at any stages of cell cycle, the data were analyzed using the non-cycle-specific model. […] In order to adapt the lifespan TGI model to account for only exponential growth we simply set the tumor threshold, wth, to a very large value well beyond the observed values of tumor size. Another unique feature of this dataset is the inclusion of saturating doses. To accommodate the dose ranges we replaced the drug potency constant, k2, in eq. 18 with the Emax model. The process of fitting was the same as for the previous studies, however, in this study the control data were very sparse and the doubling time, T, could not be estimated. In order to proceed with the analysis we set T = 3 days based on the doubling time reported by the commercial vendor of the MOLM-16 tumor cell used in the study, which was similar to the doubling reported the original study when the cells were initially collected. […] The remaining parameters were estimated with high precision and are well within biologically feasible ranges (see Table 6).

[2] = mouse, in vivo, iv, 30 mg/kg
Source text: (§2) Data used in Case Study 1 was obtained from mouse xenograft study reported by Simeoni and colleague. […] Data from the study was digitized using Graph Digitizer 2.0 (Nick's Production).

[3] = tested on: tumors derived from the HCT116 human colon carcinoma cell line; test: Tumor growth inhibition by paclitaxel in xenograft mice, lifespan TGI model with cycle-specific drug effect; type: in vivo; settings: for TA (duration of apoptosis): 30 mg/kg i.v. every 4 days from day 8, grid search, then fixed, data digitized from ref 11; for Emax (maximum effect): fixed to 1 due to lack of escalating doses
Source text: as §2

[4] = design: method as in PMID 14871843; settings: two-compartment model, parameter fixed, cited from earlier work

| V/F [1] | elimination rate constant, kel [1] | ka [1] | EC50 (MOLM-16 tumor cell; plasma concentration, Emax model, non-cycle-specific model) | peak plasma concentration [2] | Compound | TA (duration of apoptosis) (MOLM-16 tumor cell; 0.3, 1, 3, 10, 30 mg/kg orally, parameter was fixed) | Emax (MOLM-16 tumor cell; Emax model replacing k2 in non-cycle-specific model) | TA (duration of apoptosis) [3] | TA (duration of apoptosis) ([3]; listed as Paclitaxel) | Emax (maximum effect) [3] | Emax (maximum effect) ([3]; listed as Paclitaxel) | V ([4]; i.v. paclitaxel) | k12 [4] | k21 [4] | kel [4] |
| --- | --- | --- | --- | --- | --- | --- | --- | --- | --- | --- | --- | --- | --- | --- | --- |
| 4.86 L/kg | same value as ka | 5.52 day⁻¹ | 0.182 µg/mL (≈ 0.48 µM) | – | N[C@@H]1CCCN(c2c(/C=C3\SC(=O)NC3=O)cccc2-c2ccccc2)C1 [AZD1208] | 1.92 ^a days | 0.159 | – | – | – | – | – | – | – | – |
| – | – | – | – | 37040 ng/mL | CC(=O)O[C@H]1C(=O)[C@@]2(C)[C@H]([C@H](OC(=O)c3ccccc3)[C@]3(O)C[C@H](OC(=O)[C@H](O)[C@@H](NC(=O)c4ccccc4)c4ccccc4)C(C)=C1C3(C)C)[C@]1(OC(C)=O)CO[C@@H]1C[C@@H]2O [paclitaxel] | – | – | 0.536 days | 0.536 ^a days | 1 | 1 ^a | 0.81 L/kg | 0.006 h⁻¹ | 0.0838 h⁻¹ | 0.868 h⁻¹ |
